Reference: the supplement of paper PMC10733146

How the values were obtained:
Assay in all cases: viability relative to DMSO control (fraction); higher = less drug effect (more viable cells)
Details in all cases: 48 h
[1] = compound: CC(C)(C)OC(=O)Nc1ccc(-c2cc(C(=O)NCCCCCCC(=O)NO)no2)cc1
Outline: (§1)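 Viability was quantified by CellTiter-Glo luminescence and related to the median of 16 inner DMSO wells. Before that, primary mononuclear tumour cells, fresh or cryopreserved and Ficoll-isolated from blood or bone marrow or prepared from processed lymph node, were plated at 4 × 10^4 cells per well in 384-well plates containing pre-plated compounds at five concentrations, one well each. Plates were incubated in RPMI-1640 with penicillin/streptomycin, L-glutamine and human serum at 37 °C and 5% CO2 for 48 h.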

Vorinostat = compound: O=C(CCCCCCC(=O)Nc1ccccc1)NO [Vorinostat]
Outline: as §1

Pentostatin = compound: OC[C@H]1O[C@@H](n2cnc3c2N=CNC[C@H]3O)C[C@@H]1O [Pentostatin]
Outline: as §1

Vemurafenib = compound: CCCS(=O)(=O)Nc1ccc(F)c(C(=O)c2c[nH]c3ncc(-c4ccc(Cl)cc4)cc23)c1F [Vemurafenib]
Outline: as §1

Cladribine = compound: Nc1nc(Cl)nc2c1ncn2[C@H]1C[C@H](O)[C@@H](CO)O1 [Cladribine]
Outline: as §1

MLN-120B = compound: COc1c(Cl)cc2c([nH]c3cnccc32)c1NC(=O)c1cccnc1C [MLN-120B]
Outline: as §1

Panobinostat = compound: Cc1[nH]c2ccccc2c1CCNCc1ccc(/C=C/C(=O)NO)cc1 [Panobinostat]
Outline: as §1

ERK5-IN-1 = compound: CCOc1cc(C(=O)N2CCC(N3CCN(C)CC3)CC2)ccc1Nc1ncc2c(n1)N(C1CCCC1)c1ccccc1C(=O)N2C [ERK5-IN-1]
Outline: as §1

ONO-4059 = compound: CC#CC(=O)N1CC[C@@H](n2c(=O)n(-c3ccc(Oc4ccccc4)cc3)c3c(N)ncnc32)C1 [ONO-4059]
Outline: as §1

Ribociclib = compound: CN(C)C(=O)c1cc2cnc(Nc3ccc(N4CCNCC4)cn3)nc2n1C1CCCC1 [Ribociclib]
Outline: as §1

TMP269 = compound: O=C(NCC1(c2nc(-c3ccccc3)cs2)CCOCC1)c1cccc(-c2noc(C(F)(F)F)n2)c1 [TMP269]
Outline: as §1

Pralatrexate = compound: C#CCC(Cc1cnc2nc(N)nc(N)c2n1)c1ccc(C(=O)N[C@@H](CCC(=O)O)C(=O)O)cc1 [Pralatrexate]
Outline: as §1

Vincristine = compound: CC[C@]1(O)C[C@H]2CN(CCc3c([nH]c4ccccc34)[C@@](C(=O)OC)(c3cc4c(cc3OC)N(C=O)[C@H]3[C@@](O)(C(=O)OC)[C@H](OC(C)=O)[C@]5(CC)C=CCN6CC[C@]43[C@@H]65)C2)C1 [Vincristine]
Outline: as §1

BI6727 = compound: CC[C@@H]1C(=O)N(C)c2cnc(Nc3ccc(C(=O)N[C@H]4CC[C@H](N5CCN(CC6CC6)CC5)CC4)cc3OC)nc2N1C(C)C [BI6727]
Outline: as §1

AZD7762 = compound: NC(=O)Nc1cc(-c2cccc(F)c2)sc1C(=O)N[C@H]1CCCNC1 [AZD7762]
Outline: as §1

Obatoclax mesylate = compound: COC1=CC(c2cc3ccccc3[nH]2)=N/C1=C\c1[nH]c(C)cc1C [Obatoclax mesylate]
Outline: as §1

Test System: primary DLBCL patient cells (S076)
- viability ([1]; 0.024 µM): 1.05
- viability ([1]; 0.12 µM): 0.81
- viability ([1]; 0.6 µM): 0.628
- viability ([1]; 3 µM): 0.313
- viability ([1]; 15 µM): 0.119
- viability (Vorinostat; 0.016 µM): 1
- viability (Vorinostat; 0.08 µM): 0.884
- viability (Vorinostat; 0.4 µM): 0.734
- viability (Vorinostat; 2 µM): 0.417
- viability (Vorinostat; 10 µM): 0.198
- viability (Pentostatin; 0.03 µM): 1.04
- viability (Pentostatin; 0.15 µM): 0.808
- viability (Pentostatin; 0.75 µM): 0.824
- viability (Pentostatin; 3.75 µM): 0.6
- viability (Pentostatin; 18.76 µM): 0.618
- viability (Vemurafenib; 0.024 µM): 0.8
- viability (Vemurafenib; 0.12 µM): 0.988
- viability (Vemurafenib; 0.6 µM): 0.83
- viability (Vemurafenib; 3 µM): 1.04
- viability (Vemurafenib; 15 µM): 1.05
- viability (Cladribine; 0.024 µM): 0.475
- viability (Cladribine; 0.12 µM): 0.331
- viability (Cladribine; 0.6 µM): 0.138
- viability (Cladribine; 3 µM): 0.0919
- viability (Cladribine; 15 µM): 0.0759
- viability (MLN-120B; 0.024 µM): 1.07
- viability (MLN-120B; 0.12 µM): 1.07
- viability (MLN-120B; 0.6 µM): 1.05
- viability (MLN-120B; 3 µM): 0.997
- viability (MLN-120B; 15 µM): 0.861
- viability (Panobinostat; 0.00064 µM): 1.05
- viability (Panobinostat; 0.0032 µM): 0.78
- viability (Panobinostat; 0.016 µM): 0.285
- viability (Panobinostat; 0.08 µM): 0.203
- viability (Panobinostat; 0.4 µM): 0.169
- viability (ERK5-IN-1; 0.024 µM): 1.09
- viability (ERK5-IN-1; 0.12 µM): 1
- viability (ERK5-IN-1; 0.6 µM): 0.876
- viability (ERK5-IN-1; 3 µM): 0.755
- viability (ERK5-IN-1; 15 µM): 0.436
- viability (ONO-4059; 0.0016 µM): 1.03
- viability (ONO-4059; 0.008 µM): 1.04
- viability (ONO-4059; 0.04 µM): 1.08
- viability (ONO-4059; 0.2 µM): 0.992
- viability (ONO-4059; 1 µM): 0.929
- viability (Ribociclib; 0.024 µM): 1.25
- viability (Ribociclib; 0.12 µM): 1.2
- viability (Ribociclib; 0.6 µM): 1.11
- viability (Ribociclib; 3 µM): 0.986
- viability (Ribociclib; 15 µM): 0.586
- viability (TMP269; 0.024 µM): 1.17
- viability (TMP269; 0.12 µM): 1.07
- viability (TMP269; 0.6 µM): 1.15
- viability (TMP269; 3 µM): 0.94
- viability (TMP269; 15 µM): 0.959
- viability (Pralatrexate; 0.024 µM): 1.01
- viability (Pralatrexate; 0.12 µM): 0.756
- viability (Pralatrexate; 0.6 µM): 0.838
- viability (Pralatrexate; 3 µM): 0.978
- viability (Pralatrexate; 15 µM): 0.843
- viability (Vincristine; 0.016 µM): 0.726
- viability (Vincristine; 0.08 µM): 0.561
- viability (Vincristine; 0.4 µM): 0.519
- viability (Vincristine; 2 µM): 0.44
- viability (Vincristine; 10 µM): 0.363
- viability (BI6727; 0.024 µM): 1.07
- viability (BI6727; 0.12 µM): 0.971
- viability (BI6727; 0.6 µM): 0.881
- viability (BI6727; 3 µM): 0.614
- viability (BI6727; 15 µM): 0.372
- viability (AZD7762; 0.024 µM): 0.679
- viability (AZD7762; 0.12 µM): 0.69
- viability (AZD7762; 0.6 µM): 0.55
- viability (AZD7762; 3 µM): 0.481
- viability (AZD7762; 15 µM): 0.348
- viability (Obatoclax mesylate; 0.024 µM): 0.922
- viability (Obatoclax mesylate; 0.12 µM): 1.14
- viability (Obatoclax mesylate; 0.6 µM): 0.746
- viability (Obatoclax mesylate; 3 µM): 0.541
- viability (Obatoclax mesylate; 15 µM): 0.173

Test System: primary T-NHL patient cells (S058)
- viability ([1]; 0.024 µM): 0.982
- viability ([1]; 0.12 µM): 0.854
- viability ([1]; 0.6 µM): 0.611
- viability ([1]; 3 µM): 0.355
- viability ([1]; 15 µM): 0.258
- viability (Vorinostat; 0.016 µM): 1.16
- viability (Vorinostat; 0.08 µM): 0.894
- viability (Vorinostat; 0.4 µM): 0.789
- viability (Vorinostat; 2 µM): 0.381
- viability (Vorinostat; 10 µM): 0.274
- viability (Pentostatin; 0.03 µM): 1.1
- viability (Pentostatin; 0.15 µM): 1.06
- viability (Pentostatin; 0.75 µM): 0.988
- viability (Pentostatin; 3.75 µM): 0.816
- viability (Pentostatin; 18.76 µM): 0.858
- viability (Vemurafenib; 0.024 µM): 0.878
- viability (Vemurafenib; 0.12 µM): 0.957
- viability (Vemurafenib; 0.6 µM): 0.911
- viability (Vemurafenib; 3 µM): 0.982
- viability (Vemurafenib; 15 µM): 0.96
- viability (Cladribine; 0.024 µM): 0.857
- viability (Cladribine; 0.12 µM): 0.441
- viability (Cladribine; 0.6 µM): 0.147
- viability (Cladribine; 3 µM): 0.112
- viability (Cladribine; 15 µM): 0.0704
- viability (MLN-120B; 0.024 µM): 0.984
- viability (MLN-120B; 0.12 µM): 1.15
- viability (MLN-120B; 0.6 µM): 1.05
- viability (MLN-120B; 3 µM): 1.16
- viability (MLN-120B; 15 µM): 0.908
- viability (Panobinostat; 0.00064 µM): 1.24
- viability (Panobinostat; 0.0032 µM): 0.886
- viability (Panobinostat; 0.016 µM): 0.292
- viability (Panobinostat; 0.08 µM): 0.302
- viability (Panobinostat; 0.4 µM): 0.243
- viability (ERK5-IN-1; 0.024 µM): 1.12
- viability (ERK5-IN-1; 0.12 µM): 1.15
- viability (ERK5-IN-1; 0.6 µM): 0.851
- viability (ERK5-IN-1; 3 µM): 0.59
- viability (ERK5-IN-1; 15 µM): 0.403
- viability (ONO-4059; 0.0016 µM): 1.06
- viability (ONO-4059; 0.008 µM): 1.25
- viability (ONO-4059; 0.04 µM): 1.03
- viability (ONO-4059; 0.2 µM): 1.16
- viability (ONO-4059; 1 µM): 1.07
- viability (Ribociclib; 0.024 µM): 1.05
- viability (Ribociclib; 0.12 µM): 1.14
- viability (Ribociclib; 0.6 µM): 1.07
- viability (Ribociclib; 3 µM): 1.01
- viability (Ribociclib; 15 µM): 1.06
- viability (TMP269; 0.024 µM): 1.05
- viability (TMP269; 0.12 µM): 0.994
- viability (TMP269; 0.6 µM): 1.01
- viability (TMP269; 3 µM): 0.892
- viability (TMP269; 15 µM): 0.836
- viability (Pralatrexate; 0.024 µM): 1.15
- viability (Pralatrexate; 0.12 µM): 0.861
- viability (Pralatrexate; 0.6 µM): 0.833
- viability (Pralatrexate; 3 µM): 0.902
- viability (Pralatrexate; 15 µM): 0.833
- viability (Vincristine; 0.016 µM): 0.646
- viability (Vincristine; 0.08 µM): 0.417
- viability (Vincristine; 0.4 µM): 0.364
- viability (Vincristine; 2 µM): 0.302
- viability (Vincristine; 10 µM): 0.246
- viability (BI6727; 0.024 µM): 0.939
- viability (BI6727; 0.12 µM): 0.885
- viability (BI6727; 0.6 µM): 0.757
- viability (BI6727; 3 µM): 0.506
- viability (BI6727; 15 µM): 0.3
- viability (AZD7762; 0.024 µM): 1.05
- viability (AZD7762; 0.12 µM): 1.16
- viability (AZD7762; 0.6 µM): 0.936
- viability (AZD7762; 3 µM): 1.02
- viability (AZD7762; 15 µM): 0.719
- viability (Obatoclax mesylate; 0.024 µM): 0.985
- viability (Obatoclax mesylate; 0.12 µM): 0.916
- viability (Obatoclax mesylate; 0.6 µM): 0.783
- viability (Obatoclax mesylate; 3 µM): 0.533
- viability (Obatoclax mesylate; 15 µM): 0.227
